Tested on: 454973-116-R2-J3-PDC complex spheroid viability
Assay: Anticancer human tumor 454973-116-R2-J3-PDC patient-derived pancreatic carcinoma cell line growth inhibition [POLQ]
Details: for IC50: curve of first compound; for viability, T/C: stronger effect = lower value
Procedure, shortened: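 Complex spheroid viability model combining PDC tumour cells with endothelial (HUVEC) and MSC stromal cells. Novobiocin, ART-558 or RP6685 were tested singly and in combination with standard and investigational anticancer drugs. Each was titrated in half-log steps from near clinical Cmax, or from 10 microM where Cmax was unknown.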

[1] = second compound 0.0316 µM, first compound 0.0316 µM
[2] = second compound 0.0316 µM, first compound 0.1 µM
[3] = second compound 0.0316 µM, first compound 0.316 µM
[4] = second compound 0.0316 µM, first compound 1 µM
[5] = second compound 0.0316 µM, first compound 3.16 µM
[6] = second compound 0.0316 µM, first compound 10 µM
[7] = second compound 0.1 µM, first compound 0.0316 µM
[8] = second compound 0.1 µM, first compound 0.1 µM
[9] = second compound 0.1 µM, first compound 0.316 µM
[10] = second compound 0.1 µM, first compound 1 µM
[11] = second compound 0.1 µM, first compound 3.16 µM
[12] = second compound 0.1 µM, first compound 10 µM
[13] = second compound 0.316 µM, first compound 0.0316 µM
[14] = second compound 0.316 µM, first compound 0.1 µM
[15] = second compound 0.316 µM, first compound 0.316 µM
[16] = second compound 0.316 µM, first compound 1 µM
[17] = second compound 0.316 µM, first compound 3.16 µM
[18] = second compound 0.316 µM, first compound 10 µM
[19] = second compound 1 µM, first compound 0.0316 µM
[20] = second compound 1 µM, first compound 0.1 µM
[21] = second compound 1 µM, first compound 0.316 µM
[22] = second compound 1 µM, first compound 1 µM
[23] = second compound 1 µM, first compound 3.16 µM
[24] = second compound 1 µM, first compound 10 µM
[25] = second compound 3.16 µM, first compound 0.0316 µM
[26] = second compound 3.16 µM, first compound 0.1 µM
[27] = second compound 3.16 µM, first compound 0.316 µM
[28] = second compound 3.16 µM, first compound 1 µM
[29] = second compound 3.16 µM, first compound 3.16 µM
[30] = second compound 3.16 µM, first compound 10 µM
[31] = second compound 10 µM, first compound 0.0316 µM
[32] = second compound 10 µM, first compound 0.1 µM
[33] = second compound 10 µM, first compound 0.316 µM
[34] = second compound 10 µM, first compound 1 µM
[35] = second compound 10 µM, first compound 3.16 µM
[36] = second compound 10 µM, first compound 10 µM
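Further: spheroids exposed to drugs for seven days before measurement.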
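Wherever viability, T/C is given: percent viability relative to DMSO vehicle control wells taken as 100%.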

`CC(=O)O[C@H]1C(=O)[C@@]2(C)[C@H]([C@H](OC(=O)c3ccccc3)[C@]3(O)C[C@H](OC(=O)[C@H](O)[C@@H](NC(=O)c4ccccc4)c4ccccc4)C(C)=C1C3(C)C)[C@]1(OC(C)=O)CO[C@@H]1C[C@@H]2O` + COC1C(OC(N)=O)C(O)C(Oc2ccc3c(O)c(NC(=O)c4ccc(O)c(CC=C(C)C)c4)c(=O)oc3c2C)OC1(C)C gave an IC50 (second compound 0.0316 µM) of under 0.00949 µM, an IC50 (second compound 0.1 µM) of under 0.00949 µM and an IC50 (second compound 0.316 µM) of under 0.00949 µM. The IC50 (second compound 1 µM) was under 0.00949 µM, the IC50 (second compound 3.16 µM) was under 0.00949 µM and the IC50 (second compound 10 µM) was under 0.00949 µM. The viability, T/C (second compound 0.0316 µM, first compound 0.00949 µM) was 11.9%, the viability, T/C (second compound 0.0316 µM, first compound 0.03 µM) was 7.88% and the viability, T/C (second compound 0.0316 µM, first compound 0.0949 µM) was 6.54%. For the same molecule, the viability, T/C (second compound 0.0316 µM, first compound 0.3 µM) was 5.33%, the viability, T/C (second compound 0.0316 µM, first compound 0.949 µM) was 6.41% and the viability, T/C (second compound 0.0316 µM, first compound 3 µM) was 7.66%. For the same molecule, the viability, T/C (second compound 0.1 µM, first compound 0.00949 µM) was 12.8%, the viability, T/C (second compound 0.1 µM, first compound 0.03 µM) was 5.37% and the viability, T/C (second compound 0.1 µM, first compound 0.0949 µM) was 5.19%. The viability, T/C (second compound 0.1 µM, first compound 0.3 µM) was 5.57%, the viability, T/C (second compound 0.1 µM, first compound 0.949 µM) was 5.27% and the viability, T/C (second compound 0.1 µM, first compound 3 µM) was 3.86%. For the same molecule, the viability, T/C (second compound 0.316 µM, first compound 0.00949 µM) was 10.7%, the viability, T/C (second compound 0.316 µM, first compound 0.03 µM) was 5.28% and the viability, T/C (second compound 0.316 µM, first compound 0.0949 µM) was 6.4%. The viability, T/C (second compound 0.316 µM, first compound 0.3 µM) was 4.53%, the viability, T/C (second compound 0.316 µM, first compound 0.949 µM) was 6.27% and the viability, T/C (second compound 0.316 µM, first compound 3 µM) was 5.12%. The viability, T/C (second compound 1 µM, first compound 0.00949 µM) was 13.2%, the viability, T/C (second compound 1 µM, first compound 0.03 µM) was 5.82% and the viability, T/C (second compound 1 µM, first compound 0.0949 µM) was 6.61%. It also gave a viability, T/C (second compound 1 µM, first compound 0.3 µM) of 5.98%, a viability, T/C (second compound 1 µM, first compound 0.949 µM) of 5.03% and a viability, T/C (second compound 1 µM, first compound 3 µM) of 5.86%. It also gave a viability, T/C (second compound 3.16 µM, first compound 0.00949 µM) of 11.1%, a viability, T/C (second compound 3.16 µM, first compound 0.03 µM) of 7.33% and a viability, T/C (second compound 3.16 µM, first compound 0.0949 µM) of 4.63%. The viability, T/C (second compound 3.16 µM, first compound 0.3 µM) was 3.97%, the viability, T/C (second compound 3.16 µM, first compound 0.949 µM) was 3.87% and the viability, T/C (second compound 3.16 µM, first compound 3 µM) was 4.77%. For the same molecule, the viability, T/C (second compound 10 µM, first compound 0.00949 µM) was 12.8%, the viability, T/C (second compound 10 µM, first compound 0.03 µM) was 4.79% and the viability, T/C (second compound 10 µM, first compound 0.0949 µM) was 7.63%. The viability, T/C (second compound 10 µM, first compound 0.3 µM) was 5.47%, the viability, T/C (second compound 10 µM, first compound 0.949 µM) was 3.92% and the viability, T/C (second compound 10 µM, first compound 3 µM) was 5.39%.
In the case of `COc1cc(C2c3cc4c(cc3C(OC3OC5COC(C)OC5C(O)C3O)C3COC(=O)C23)OCO4)cc(OC)c1O` (stereo unspecified) + COC1C(OC(N)=O)C(O)C(Oc2ccc3c(O)c(NC(=O)c4ccc(O)c(CC=C(C)C)c4)c(=O)oc3c2C)OC1(C)C, the IC50 (second compound 0.0316 µM) is reported as 1.59 µM, the IC50 (second compound 0.1 µM) is reported as 1.57 µM and the IC50 (second compound 0.316 µM) is reported as 1.81 µM. For the same molecule, the IC50 (second compound 1 µM) was 1.6 µM, the IC50 (second compound 3.16 µM) was 1.49 µM and the IC50 (second compound 10 µM) was 1.33 µM. The viability, T/C [1] was 97.7%, the viability, T/C [2] was 108% and the viability, T/C [3] was 92.7%. It also gave a viability, T/C [4] of 66.8%, a viability, T/C [5] of 25.3% and a viability, T/C [6] of 9.55%. It also gave a viability, T/C [7] of 100%, a viability, T/C [8] of 111% and a viability, T/C [9] of 93%. For the same molecule, the viability, T/C [10] was 67.8%, the viability, T/C [11] was 23.5% and the viability, T/C [12] was 11.8%. The viability, T/C [13] was 106%, the viability, T/C [14] was 107% and the viability, T/C [15] was 93.8%. It also gave a viability, T/C [16] of 81.2%, a viability, T/C [17] of 20.7% and a viability, T/C [18] of 9.08%. It also gave a viability, T/C [19] of 116%, a viability, T/C [20] of 97.9% and a viability, T/C [21] of 95.6%. It also gave a viability, T/C [22] of 70.4%, a viability, T/C [23] of 21.9% and a viability, T/C [24] of 10.6%. It also gave a viability, T/C [25] of 118%, a viability, T/C [26] of 101% and a viability, T/C [27] of 96.6%. The viability, T/C [28] was 63.6%, the viability, T/C [29] was 24.7% and the viability, T/C [30] was 9.62%. It also gave a viability, T/C [31] of 122%, a viability, T/C [32] of 94.7% and a viability, T/C [33] of 90.6%. It also gave a viability, T/C [34] of 61.4%, a viability, T/C [35] of 21.4% and a viability, T/C [36] of 8.32%.
`COc1cccc2c1C(=O)c1c(O)c3c(c(O)c1C2=O)CC(O)(C(=O)CO)CC3OC1CC(N)C(O)C(C)O1` (stereo unspecified) + COC1C(OC(N)=O)C(O)C(Oc2ccc3c(O)c(NC(=O)c4ccc(O)c(CC=C(C)C)c4)c(=O)oc3c2C)OC1(C)C showed an IC50 (second compound 0.0316 µM) of 0.0562 µM, an IC50 (second compound 0.1 µM) of 0.0573 µM and an IC50 (second compound 0.316 µM) of 0.0648 µM. The IC50 (second compound 1 µM) was 0.0636 µM, the IC50 (second compound 3.16 µM) was 0.0664 µM and the IC50 (second compound 10 µM) was 0.0618 µM. It also gave a viability, T/C [1] of 71%, a viability, T/C [2] of 23.6% and a viability, T/C [3] of 21.3%. It also gave a viability, T/C [4] of 8.86%, a viability, T/C [5] of 0.64% and a viability, T/C [6] of 0.19%. For the same molecule, the viability, T/C [7] was 69.5%, the viability, T/C [8] was 27.6% and the viability, T/C [9] was 22.3%. For the same molecule, the viability, T/C [10] was 8.87%, the viability, T/C [11] was 0.52% and the viability, T/C [12] was 0.98%. It also gave a viability, T/C [13] of 74.3%, a viability, T/C [14] of 29.4% and a viability, T/C [15] of 25.5%. The viability, T/C [16] was 8.79%, the viability, T/C [17] was 0.27% and the viability, T/C [18] was 0.29%. For the same molecule, the viability, T/C [19] was 78.3%, the viability, T/C [20] was 26% and the viability, T/C [21] was 23.6%. For the same molecule, the viability, T/C [22] was 11.8%, the viability, T/C [23] was 3.28% and the viability, T/C [24] was 2.08%. The viability, T/C [25] was 76.4%, the viability, T/C [26] was 30.7% and the viability, T/C [27] was 22.9%. It also gave a viability, T/C [28] of 9.68%, a viability, T/C [29] of 0.46% and a viability, T/C [30] of 0.39%. The viability, T/C [31] was 76%, the viability, T/C [32] was 24.7% and the viability, T/C [33] was 24.8%. It also gave a viability, T/C [34] of 10%, a viability, T/C [35] of 1.62% and a viability, T/C [36] of 0.41%.
